Results from ChEMBL document CHEMBL2094260, “Malaria Box Tuberculosis Screening Data”.

test system: Mycobacterium tuberculosis; assay: MMV: Screen against Mtb, single point, non replicating, at 25uM; assay type: functional

Structure (SMILES) | inhibition at 25 µM
CN(C)CCNc1cc(-c2ccccc2)nc2ccccc12 | 6.45%
COc1ccc(CCNC(=O)c2cc(S(=O)(=O)N3CC(C)CC(C)C3)ccc2Sc2ccc(F)cc2)cc1OC (stereo not drawn) | 22.6%
Oc1ccc(-c2nc(-c3ccc4oc5ccc(-c6[nH]c(-c7ccc(O)cc7)nc6-c6ccccc6)cc5c4c3)c(-c3ccccc3)[nH]2)cc1 | 13%
O=c1cc(NC2CCN(CCCc3ccccc3)CC2)c2cc(Cl)ccc2o1 | 14.3%
CCOc1ccc(N2C(N)=NC(N)=NC2(C)C)cc1 | 8.77%
Oc1ccc(Cl)cc1CNc1nc2ccccc2[nH]1 | 4.53%
CN1CCN(c2c3c(c(C#N)c4nc5ccccc5n24)CCC3)CC1 | 4.53%
O=C(Cc1ccccc1)NC(c1ccc(Cl)cc1)c1c(O)ccc2ccccc12 (stereo not drawn) | -0.46%
COc1ccc(CN2CCCC(C(=O)c3ccc(C(F)(F)F)cc3)C2)c(O)c1 (stereo not drawn) | 1.85%
COc1ccc(C=C2SC(=N)N(c3ccccc3OC)C2=O)cc1 | 6.97%
CC(C)OCc1cc(CN2CCN(c3cccc(Cl)c3)CC2)c(O)c2ncccc12 | 11.7%
Cc1c(C)n(CC(O)CNC2CCCCC2C)c2ccccc12 (stereo not drawn) | 7.84%
O=C(Nc1ccc(-c2nc3cc4ccccc4cc3[nH]2)cc1)c1cccc(Br)c1 | 37%
CCCCCC(=O)N1c2ccccc2N=C2CC(c3ccc(OC)c(OC)c3)CC(O)=C2C1c1ccc(C(F)(F)F)cc1 (stereo not drawn) | 16%
CCOC(=O)c1cn(CC)c2cc(N(C)CCc3ccc(OC)c(OC)c3)c(F)cc2c1=O | 11.9%
CCN(CC)CCNc1ccnc2cc3ccccc3cc12 | 0.0721%
O=C(CCl)NCCOc1ccc(Cl)cc1Cl | 25.3%
COc1ccc(CCn2c(=N)c(C(=O)NCc3cccnc3)cc3c(=O)n4cccc(C)c4nc32)cc1 | 8.77%
CN(C)CCCNCc1ccc(-c2ccc(F)c(Cl)c2)o1 | 1.91%
COc1ccc(C2N(C)c3ccccc3N2C)cc1 | -0.36%

Structure (SMILES) | inhibition at 25 µM
CCN(CC)CCCNc1ccnc2cc3ccccc3cc12 | 14.6%
Oc1ccc(Br)cc1CN1CCN(Cc2cccc(F)c2)CC1 | -1.58%
COc1ccccc1C(=O)ON=C(N)Cc1cccc2ccccc12 | 32.7%
COc1cc2c3cc1Oc1c(OC)c(OC)cc4c1C(Cc1ccc(O)c(c1)Oc1ccc(cc1)CC3N(C)CC2)N(C)CC4 (stereo not drawn) | 18.5%
CCn1c(SCC(=O)Nc2cc(C(F)(F)F)ccc2Cl)nc2ccccc2c1=O | 16%
CCOc1ccc(/C=C/c2nc(=O)c3ccccc3o2)cc1 | 12%
COc1cc(C(=O)ON=C(N)Cc2cccc3ccccc23)cc(OC)c1OC | 24.2%
Fc1ccc2[nH]c3c(NCCCN4CCOCC4)ncnc3c2c1 | 13.8%
FC(F)(F)c1cccc(Nc2nc(-c3ccccc3)nc3ncccc23)c1 | 7.32%
CCOC(=O)c1c(C)n(-c2ccc(Cl)cc2)c2ccc(OC(=O)C=Cc3ccccc3)cc12 | 18.8%
Cc1cccc(-n2ncc3c(O)nc(-n4nc(C)cc4NC(=O)c4cc5ccccc5o4)nc32)c1 | 48.2%
COc1ccccc1N1C(=N)SC(=Cc2ccc(OCc3ccccc3F)cc2)C1=O | 21.4%
CCN1CCN(c2cc(C)c3cc(NC(=O)c4ccc(OC)c(OC)c4)ccc3n2)CC1 | 12.7%
OC1=C2C(=Nc3ccccc3SC2c2ccc(Br)cc2)c2ccccc21 (stereo not drawn) | 0.604%
Cc1ccccc1OCCSc1nc2ccc(NC(=O)c3ccccc3)cc2s1 | 9.66%
CC(=O)Nc1nnc(SCc2c(C)cc(C(C)(C)C)cc2C)s1 | 19.7%
CCOc1ccc(CCNC(=O)c2cccs2)cc1OCC | 15%
CCN1CCN(c2c(C(=O)c3ccccc3)cnc3cc(OC)c(OC)cc23)CC1 | 1.14%
N#Cc1nc(Cc2cccc3ccccc23)oc1N1CCN(C(c2ccccc2)c2ccccc2)CC1 | 18.9%

test system: Mycobacterium tuberculosis; assay: MMV: Screen against Mtb, single point, replicating, at 25uM; assay type: functional

Structure (SMILES) | inhibition at 25 µM
CN(C)CCNc1cc(-c2ccccc2)nc2ccccc12 | 6.89%
COc1ccc(CCNC(=O)c2cc(S(=O)(=O)N3CC(C)CC(C)C3)ccc2Sc2ccc(F)cc2)cc1OC (stereo not drawn) | -6.51%
Oc1ccc(-c2nc(-c3ccc4oc5ccc(-c6[nH]c(-c7ccc(O)cc7)nc6-c6ccccc6)cc5c4c3)c(-c3ccccc3)[nH]2)cc1 | 19.2%
O=c1cc(NC2CCN(CCCc3ccccc3)CC2)c2cc(Cl)ccc2o1 | 24.2%
CCOc1ccc(N2C(N)=NC(N)=NC2(C)C)cc1 | -0.705%
Oc1ccc(Cl)cc1CNc1nc2ccccc2[nH]1 | 38.6%
CN1CCN(c2c3c(c(C#N)c4nc5ccccc5n24)CCC3)CC1 | 7.2%
O=C(Cc1ccccc1)NC(c1ccc(Cl)cc1)c1c(O)ccc2ccccc12 (stereo not drawn) | 12%
COc1ccc(CN2CCCC(C(=O)c3ccc(C(F)(F)F)cc3)C2)c(O)c1 (stereo not drawn) | 35.3%
COc1ccc(C=C2SC(=N)N(c3ccccc3OC)C2=O)cc1 | 24.5%
CC(C)OCc1cc(CN2CCN(c3cccc(Cl)c3)CC2)c(O)c2ncccc12 | 9.32%
Cc1c(C)n(CC(O)CNC2CCCCC2C)c2ccccc12 (stereo not drawn) | 24.7%
O=C(Nc1ccc(-c2nc3cc4ccccc4cc3[nH]2)cc1)c1cccc(Br)c1 | 8.07%
CCCCCC(=O)N1c2ccccc2N=C2CC(c3ccc(OC)c(OC)c3)CC(O)=C2C1c1ccc(C(F)(F)F)cc1 (stereo not drawn) | 12.5%
CCOC(=O)c1cn(CC)c2cc(N(C)CCc3ccc(OC)c(OC)c3)c(F)cc2c1=O | 14.8%
CCN(CC)CCNc1ccnc2cc3ccccc3cc12 | 0.862%
O=C(CCl)NCCOc1ccc(Cl)cc1Cl | 35%
COc1ccc(CCn2c(=N)c(C(=O)NCc3cccnc3)cc3c(=O)n4cccc(C)c4nc32)cc1 | 4.47%
CN(C)CCCNCc1ccc(-c2ccc(F)c(Cl)c2)o1 | 23.9%
COc1ccc(C2N(C)c3ccccc3N2C)cc1 | -1.76%

Structure (SMILES) | inhibition at 25 µM
CCN(CC)CCCNc1ccnc2cc3ccccc3cc12 | 8.7%
Oc1ccc(Br)cc1CN1CCN(Cc2cccc(F)c2)CC1 | 28.5%
COc1ccccc1C(=O)ON=C(N)Cc1cccc2ccccc12 | 52.3%
COc1cc2c3cc1Oc1c(OC)c(OC)cc4c1C(Cc1ccc(O)c(c1)Oc1ccc(cc1)CC3N(C)CC2)N(C)CC4 (stereo not drawn) | 3.53%
CCn1c(SCC(=O)Nc2cc(C(F)(F)F)ccc2Cl)nc2ccccc2c1=O | 2.95%
CCOc1ccc(/C=C/c2nc(=O)c3ccccc3o2)cc1 | 18.9%
COc1cc(C(=O)ON=C(N)Cc2cccc3ccccc23)cc(OC)c1OC | 59.3%
Fc1ccc2[nH]c3c(NCCCN4CCOCC4)ncnc3c2c1 | 13.6%
FC(F)(F)c1cccc(Nc2nc(-c3ccccc3)nc3ncccc23)c1 | 1.43%
CCOC(=O)c1c(C)n(-c2ccc(Cl)cc2)c2ccc(OC(=O)C=Cc3ccccc3)cc12 | 25.1%
Cc1cccc(-n2ncc3c(O)nc(-n4nc(C)cc4NC(=O)c4cc5ccccc5o4)nc32)c1 | 48.5%
COc1ccccc1N1C(=N)SC(=Cc2ccc(OCc3ccccc3F)cc2)C1=O | 8.86%
CCN1CCN(c2cc(C)c3cc(NC(=O)c4ccc(OC)c(OC)c4)ccc3n2)CC1 | 14.8%
OC1=C2C(=Nc3ccccc3SC2c2ccc(Br)cc2)c2ccccc21 (stereo not drawn) | -4.78%
Cc1ccccc1OCCSc1nc2ccc(NC(=O)c3ccccc3)cc2s1 | 22%
CC(=O)Nc1nnc(SCc2c(C)cc(C(C)(C)C)cc2C)s1 | 3.55%
CCOc1ccc(CCNC(=O)c2cccs2)cc1OCC | 30%
CCN1CCN(c2c(C(=O)c3ccccc3)cnc3cc(OC)c(OC)cc23)CC1 | 5.25%
N#Cc1nc(Cc2cccc3ccccc23)oc1N1CCN(C(c2ccccc2)c2ccccc2)CC1 | 7.13%
